Consider 1 compound from US8524195B2, “Iron oxide nanoparticles as MRI contrast agents and their preparing method” (Korea Basic Science Institute, priority 2010, dated 2013).

In the test the test system is colon cancer (HT-29) cells. Kind of test: XTT assay, relative viability of colon cancer (HT-29) cells. The test is classed as cell-based. The note with it: after 24 hours. The protocol:
Samples were prepared by introducing the nano contrast agents (CIONPs) and the iron oxide (Fe3O4) nanoparticle drug carriers (DOX-CIONPs) prepared in Examples 2 and 3 and anti-cancer medicines (Doxorubicine) into colon cancer (HT-29) cells by concentrations of 0.001, 0.01, 0.1, 1 and 10 mM. After 24 hours, XTT reagent was added to each sample and relative viability of cancer cells according to the concentration of CIONPs, DOX-CIONPs and anti-cancer medicines (Doxorubicine) were measured. The measurement was carried out by comparing optical absorbances of formazan products from the cancer cells using an absorption spectrometer (XTT assay).
On the technique in general: Formazan colour is commonly taken as a measure of viable cells.

On to `COc1cccc2c1C(=O)c1c(O)c3c(c(O)c1C2=O)C[C@@](O)(C(=O)CO)C[C@@H]3O[C@H]1C[C@H](N)[C@H](O)[C@H](C)O1` [Doxorubicine], for which the cancer cells perished by setting is: (0.1 mM) 35%; (1 mM) 60%; (10 nm (so in the source)) 62%.
